Test results as given in EPA's aquatic toxicity sets.

Tested on: Tetrahymena pyriformis
Test: 48 h IGC50 (-log10 mol/L); higher = more toxic

Point of comparison: CCCCC(C(=O)OCC)C(=O)OCC, “48 h IGC50 (-log10 mol/L)” value 3.56. Against it:
- CC#CC(O)CC (stereo not given) — lower, 2.81
- CCOS(=O)OCC — lower, 2.01
- CNCCc1ccccc1 — lower, 2.59
- CCCC(N)CO (stereo not given) — lower, 2.33
- Oc1c(Br)cc(Br)c(O)c1Br — higher, 4.06
- C#CCCCO — lower, 1.58
- C=COC(=O)/C=C/C — lower, 2.85
- OCCC(c1ccccc1)c1ccccc1 — higher, 4.04
- S=C=NC(c1ccccc1)c1ccccc1 — higher, 6.05
- O=Cc1ccccc1F — lower, 3.08
- OCC#CCO — lower, 1.12
- C=CC(C)(C)O — lower, 1.61
- CCCCCOC(C)=O — lower, 3.16
- CC1=CCCC1=O — lower, 2.17
- CCCCC/C=C/CCC=O — higher, 4.21
- C#CC(C)(C)N — lower, 2.09
- CC(=O)CCC(C)=O — lower, 1.6
- CCOC(=O)c1ccc(C)cc1 — within 0.2 log units, 3.68
- CCCCCCN=C=S — higher, 4.75
- CCCCCCC(=O)O — lower, 2.89
- CCCCCCC(=O)CCCCCC — higher, 4.52
- COc1cc(C#N)ccc1O — lower, 2.97
- O=C(O)Cc1ccc(O)cc1 — lower, 1.5
- C=C(C)C(=O)OCC — lower, 2.07
- CCOC(=O)C(C)(C)Br — lower, 3.15
- CCCCCC#CC(=O)OCC — higher, 4.24
- NCC(O)CN — lower, 1.57
- COC(=O)c1ccccc1 — lower, 3.23
- N#Cc1cc([N+](=O)[O-])cc([N+](=O)[O-])c1 — higher, 4.22
- CC#CC(=O)OCC — within 0.2 log units, 3.51
- COP(=O)(OC)OC — lower, 1.18
- Oc1ccc(N=Nc2ccccc2)cc1 — higher, 4.66
- CCOC(=O)C(C(=O)OCC)=C(C)C — lower, 2.93
- CCCCCCC(Br)C(=O)OCC (stereo not given) — higher, 4.5
- CCc1cc(O)ccc1Cl — higher, 4.08
- O=C1C=CCC1 — within 0.2 log units, 3.64
- CCCCCCCCCO — higher, 3.85
- CC(=O)OCCCCBr — within 0.2 log units, 3.39
- COc1ccc(C=O)cc1 — lower, 2.95
- CC/C=C\CO — lower, 1.9
- NNC(=O)CCCCC(=O)NN — lower, 1.63
- C#CC(O)C(C)C (stereo not given) — lower, 2.97
- Oc1ccc(F)cc1F — within 0.2 log units, 3.6
- O=[N+]([O-])c1cccc(CO)c1 — lower, 2.78
- C=CS(=O)(=O)c1ccccc1 — higher, 4.28
- CCCNC — lower, 2.19
- C=CC(=O)CC — higher, 4.52
- CC(=O)c1ccc(O)c(C(N)=O)c1 — lower, 2.9
- CC(=O)c1cc(C)ccc1O — lower, 3.31
- C#CC(C)=O — higher, 4.96
- C/C=C/C(=O)CCCC — higher, 4.01
- CCC(O)c1ccccc1 (stereo not given) — lower, 2.57
- CCC(O)(CC)C(C)(C)C — lower, 2.83
- N#CC(=O)c1ccccc1 — lower, 3.31
- C/C=C/CC(=O)OC — lower, 2.72
- O=Cc1ccoc1 — lower, 3
- O=Cc1ccsc1 — within 0.2 log units, 3.4
- CCCCCCCCOC(=O)CC#N — higher, 3.9
- CCCCC(=O)Cl — lower, 2.65
- O=Cc1cccc(Br)c1 — within 0.2 log units, 3.51
- Sc1ccccc1 — higher, 4.66
- CC/C=C\CCO — lower, 2.19
- CCCCCCCl — higher, 3.78
- O=Cc1cc2ccccc2c2ccccc12 — higher, 4.71
- Cc1ccnc(C)c1 — lower, 2.35
- OCCCCCCCCCCO — lower, 3.22
- CC(O)CCO (stereo not given) — lower, 0.699
- CCC(C)CO (stereo not given) — lower, 2.05
- C[C@H](N=C=S)c1ccccc1 — higher, 5.7
- COc1cc(CCO)ccc1O — lower, 2.82
- C/C=C/C(=O)CC — higher, 3.92
- CC(=O)c1cc[nH]c1 — lower, 2.15
- CCOC(=O)Cc1cccs1 — lower, 3.27
- CCOC(=O)C(C)C(=O)OCC — lower, 2.49
- CC(=O)c1cccc([N+](=O)[O-])c1 — lower, 3.32
- N#CCc1ccccc1 — lower, 2.64
- CCCCc1ccco1 — within 0.2 log units, 3.44
- Nc1c(Cl)cc([N+](=O)[O-])cc1[N+](=O)[O-] — higher, 4.12
- Nc1c(Cl)cc(Cl)cc1[N+](=O)[O-] — higher, 4.26
- CCCCCl — lower, 2.09
- O=[N+]([O-])c1ccc(Br)c([N+](=O)[O-])c1 — higher, 5.31
- OCc1cccc(O)c1 — lower, 1.98
- CCCNC(C)=O — lower, 1.5
- COC(=O)CC#N — lower, 1.66
- CCCCCN=C=S — higher, 4.71
- Cc1[nH]cnc1C=O — lower, 2.07
- CCCCCCC(O)CC (stereo not given) — lower, 3.36
- C=CCOC(=O)C=CC — lower, 2.52
- CC(C)=CC=O — lower, 3.09
- CCOc1cccc(C=O)c1O — higher, 3.85
- CCCCCCC/C=C/C=O — higher, 4.85
- O=C(O)c1cccc(O)c1 — lower, 2.19
- C=C(C)C(=O)OC — lower, 1.78
- N#Cc1cc([N+](=O)[O-])c(Cl)c([N+](=O)[O-])c1 — higher, 5.66
- Oc1c(Cl)cccc1Cl — within 0.2 log units, 3.73
- CCCCC1CCC(=O)O1 (stereo not given) — lower, 2.62
- O=[N+]([O-])c1c(F)cc(F)c(F)c1F — higher, 4.87
- Cc1cccc(C#N)c1 — lower, 2.75
- Cc1ccc(Cl)c(O)c1 — within 0.2 log units, 3.54
- C/C=C(\C)C(=O)OC — lower, 2.38
- OC12CC3CC(CC(C3)C1)C2 — lower, 2.92
- COc1ccc(Cl)c(Cl)c1Cl — higher, 4.64
- CC(C)(C)CO — lower, 2.13
- CCOC(=O)/C=C/c1ccccc1 — higher, 3.99
- C/C=C/COC(C)=O — lower, 2.13
- CCCCNC(=S)NCCCC — higher, 3.86
- CCCCCCCCCCCC#N — higher, 4.9
- CCC(N)CC — lower, 2.19
- CCOC(=O)CCBr — lower, 3.13
- CCCCC(CC)COC(=O)c1ccc(O)cc1 (stereo not given) — higher, 5.51
- CCCCCC(N)=O — lower, 2.09
- CCCOC(=O)c1ccccc1C(=O)OCCC — higher, 3.98
- c1cnc2ccc3ncccc3c2c1 — higher, 4.14
- CC(O)C(c1ccccc1)c1ccccc1 (stereo not given) — within 0.2 log units, 3.75
- CCS(=O)(=O)CC — lower, 1.16
- Oc1ccc(O)c(-c2ccccc2)c1 — higher, 5.01
- CCCCCCC(=O)c1ccccc1 — higher, 4.56
- CCC(O)CO (stereo not given) — lower, 0.952
- CC#Cc1ccccc1 — lower, 3.19
- CC(C)CCBr — lower, 3.25
- CCCCCc1ccc(O)cc1 — higher, 4.58
- CCCCCCC(O)CCC (stereo not given) — higher, 3.85
- CC=C(C)C(=O)OCC — lower, 2.5
- OCCc1ccccc1 — lower, 2.41
- O=C(OCCO)c1ccccc1O — lower, 2.92
- CCCCC#CCCO — lower, 3.02
- CCOC(=O)Cc1ccc(O)c(OC)c1 — lower, 2.77
- CC(=O)OC(C)C — lower, 1.41
- CC(=O)c1ccc(C)o1 — lower, 2.17
- CCC#CCCO — lower, 1.98
- COc1cc(C(C)=O)ccc1O — lower, 2.88
- O=Cc1ccc(Cl)o1 — lower, 3.07
- CCOC(=O)CCCC(=O)CC(=O)OCC — lower, 2.62
- CCN=C=S — higher, 4.63
- c1ccc2nc3ccccc3nc2c1 — higher, 4.4
- C=CCC(C(=O)OCC)C(=O)OCC — lower, 2.94
- CCC(=O)NC — lower, 1.47
- Nc1c([N+](=O)[O-])ccc2ncccc12 — higher, 3.92
- CCOC(=O)c1ccc(Br)cc1 — higher, 4.33
